Earlier results in patent US10413528B2, “Methods to inhibit infection during wound healing with topical compositions including amino acids” (priority 2014, dated 2019).

Details: for maximum aqueous solubility: in water

Row | Structure (SMILES) | maximum aqueous solubility [mg/mL] | maximum solubility in water [mg/mL]
1 | C[C@H](N)C(=O)O [alanine] | 166.5 | 
2 | NC(=O)CC[C@H](N)C(=O)O [glutamine] | 35 | 
3 | N[C@@H](Cc1c[nH]cn1)C(=O)O [histidine] | 41.6 | 
4 | CC(C)C[C@H](N)C(=O)O [leucine] | 22.4 | 22.4
5 | CSCC[C@H](N)C(=O)O [methionine] | 53.7 | 
6 | CC(C)[C@H](N)C(=O)O [valine] | 85 | 
